Source: ChEMBL document CHEMBL3430912, “GSK Tres Cantos Anti-Kinetoplastid Screening (TCAKS) Data”

What was measured:
Trypanosoma cruzi [1] = experiment: (§1) GSK_TCAKS: pIC50 H2C9 Imaging: H9c2 Host Cardiomyocytes. […] Cells were then washed once with PBS before infection. T. cruzi trypomastigotes, collected at days 5 to 8 after infection from LLC-MK2 parasite infected cultures, were allowed to swim out for 4h at 37C from a centrifuged pellet (2,500 rpm/10 min/room temperature). Trypomastigotes were then collected and counted in a CASY Cell Counter. Trypomastigotes, in supplemented DMEM, were added to H9c2 cultures in a multiplicity of infection of 1 and incubated for 18 h. Cells were washed once with PBS before incubation of the infected H9c2 monolayer with trypsin (Life-Technologies) to detach cells from the flask. Cells were counted in a CASY Cell Counter using a 150 um capillary and their density set at 5 * 10^4 cells per mL in supplemented assay DMEM. Infected H9c2 were dispensed into 384-well poly-lysine coated assay plates at 50uL per well using a Multidrop Combi dispenser. After seeding them, the plates were incubated at 37C, 5% CO2 for 72h. Cultures were then fixed and stained by addition of 50 uL of a solution containing 8% formaldehyde and 4 uM DRAQ5 DNA dye (BioStatus, UK) per well. […] Five images were collected per well for reliable statistical analysis. Automated image analysis was performed with a script developed on Acapella High Content Imaging and Analysis Software (PerkinElmer). Output: Number of H9c2 Host Cardiomyocytes nuclei to determine drug-related cytotoxicity.; type: functional, organism-based, Rattus norvegicus; conditions: H9c2, 4 h
Trypanosoma cruzi [2] = experiment: as §1, with “Trypanosoma cruzi” for “H2C9”, “Amastigotes/Cell.” for “H9c2 Host Cardiomyocytes.”, “number” for “Number”, “amastigotes per cell as infection level measurement.” for “H9c2 Host Cardiomyocytes nuclei to determine drug-related cytotoxicity.”; type: functional, organism-based, Rattus norvegicus; conditions: H9c2, 4 h
Leishmania donovani [3] = experiment: (§2) GSK_TCAKS: pIC50 Leishmania donovani Imaging: Amastigotes/Macrophages. Assay plates (384-well) were prepared by adding 250nL of compound to each well. For single shot assay, the final compound concentration was 5 uM. […] Automated image analysis was performed with a script developed on Acapella High Content Imaging and Analysis Software (PerkinElmer). Output: Average number of amastigotes per macrophage cell were reported for each well.; type: functional, organism-based, Homo sapiens; conditions: THP-1
[4] = target: Sterol 14-alpha demethylase (Trypanosoma cruzi (strain CL Brener), UniProt Q7Z1V1); experiment: GSK_TCAKS: pIC50 CYP51 from Trypanosoma cruzi.; type: functional
Trypanosoma cruzi [5] = experiment: as §1, with “Trypanosoma cruzi” for “H2C9”, “Infected Cells.” for “H9c2 Host Cardiomyocytes.”, “percentage” for “Number”, “infected cells per well as a second infection marker.” for “H9c2 Host Cardiomyocytes nuclei to determine drug-related cytotoxicity.”; type: functional, organism-based, Rattus norvegicus; conditions: H9c2, 4 h
Leishmania donovani [6] = experiment: as §2, with “Infected Macrophages.” for “Amastigotes/Macrophages.”, “Percent” for “Average number”, “infected” for “amastigotes per”, “cells” for “cell”; type: functional, organism-based, Homo sapiens; conditions: THP-1
[7] = test system: Trypanosoma brucei brucei; experiment: GSK_TCAKS: pIC50 Trypanosoma brucei viability assay using luminiscence. Assay plates (1536-well) were prepared. T. brucei cultures were harvested and counted in a CASY cell counter. A parasite suspension was prepared at a final concentration of 5 * 10^4 cells/mL in complete HMI9 medium and 6uL was dispensed to all wells containing compounds using a Multidrop Combi dispenser. 6uL of HMI9 media with 0.4% DMSO were dispensed to control columns. Plates were incubated for 24 h at 37C, 5% CO2 then tempered for 10 min at room temperature. ATP content was quantified by adding 4 uL of CellTiter-Glo Reagent (Promega) according to the manufacturer's instructions. Luminescence was measured using a ViewLux.; type: functional, organism-based; conditions: Lister 427, CASY
Leishmania donovani [8] = experiment: GSK_TCAKS: pIC50 Leishmania donovani viability assay using fluorescence intensity. Assay plates (1536-well) were prepared by adding 30nL per well of compound. For single shot assay, the final compound concentration was 5uM. […] Briefly, eGFP LdBOB axenic amastigotes were harvested, fixed and counted in a CASY cell counter (Roche-Applied Science). A final concentration of 1.5 * 10^5 cells per well were prepared in amastigote media containing 500 U/mL penicillin/streptomycin (Invitrogen) and 6uL was dispensed to each experimental well using a Multidrop Combi dispenser (Thermo Scientific). 6uL of assay media was dispensed to control columns used as reference for 100% compound response. Following incubation for 72 h at 37C, 5% CO2, 2 uL of resazurin was added to each well at a final concentration of 0.5 mM in phosphate buffered saline (PBS) with IGEPAL (Sigma-Aldrich), 0.05% (v/v).; type: functional, organism-based
[9] = test system: Trypanosoma brucei brucei; experiment: GSK_TCAKS: pIC50 Trypanosoma brucei viability assay using fluorescence intensity. Assay plates (1536-well) were prepared by dispensing 25nL of compound solution per well using an Echo acoustic dispenser (Labcyte).; type: functional, organism-based; conditions: Lister 427, 2 h
[10] = GSK_TCAKS: pIC50 HepG2 human cell line viability assay using luminiscence. […] Seeding density was checked to ensure that new mono-layers were not more than 50% confluent at the time of harvesting. Cell suspension was added to 500 mL of the same medium at a final density of 1.2 * 10^5 cells/mL. This cell suspension was dispensed (25 uL, 3000 cells per well) into 384-well clear-bottom plates using a Multidrop Combi dispenser. Prior to addition of the cell suspension, the screening compounds (250 nL) were pre-dispensed into the plates with an Echo liquid handler. Plates were incubated for 48 h at 37C, 5% CO2. After incubation, plates equilibrated at room temperature for 30 min before proceeding to develop the luminescent signal. The signal developer, CellTiter-Glo Reagent, was allowed to equilibrate at room temperature for 30 min and added to the plates (25uL per well) using a Multidrop Combi dispenser. Plates were left for 10 min at room temperature for stabilization and then read using a ViewLux.; type: toxicity, cell-based
Leishmania donovani [11] = experiment: as §2, with “THP-1 Host Macrophages.” for “Amastigotes/Macrophages.”, “THP-1” for “Average number of amastigotes per macrophage”, “cell count” for “cell”; type: functional, organism-based, Homo sapiens
Trypanosoma cruzi [12] = experiment: GSK_TCAKS: pIC50 Trypanosoma cruzi viability assay using beta-GAL activity. This assay was run at single shot at 5uM compound concentration per well. The biological reagents consisted of NIH-3T3 host cells and trypomastigotes parasitic cells; both cell types were set to a 3.3 * 10^5 cells/mL dilution in assay DMEM by means of a CASY cell counter device using a 60um capillary. 6 uL of the mixture were dispensed per well (about 1 * 10^3 host-cells and 1 * 10^3 parasites) with a Multidrop Combi dispenser. […] In all wells, the percentage of DMSO never exceeded 0.5%. Plates incubated for four days at 37C, 5% CO2. The substrate used for the assay fluorescence intensity (FLINT) readout was resorufin-beta-D-galactopiranoside (Sigma-Aldrich) at 5uM per well. It was diluted in PBS supplemented with the soft detergent Igepal (Fluka).; type: functional, organism-based, Mus musculus; conditions: Tulahuen, NIH3T3

Chain of Sterol 14-alpha demethylase (Q7Z1V1 whole entry): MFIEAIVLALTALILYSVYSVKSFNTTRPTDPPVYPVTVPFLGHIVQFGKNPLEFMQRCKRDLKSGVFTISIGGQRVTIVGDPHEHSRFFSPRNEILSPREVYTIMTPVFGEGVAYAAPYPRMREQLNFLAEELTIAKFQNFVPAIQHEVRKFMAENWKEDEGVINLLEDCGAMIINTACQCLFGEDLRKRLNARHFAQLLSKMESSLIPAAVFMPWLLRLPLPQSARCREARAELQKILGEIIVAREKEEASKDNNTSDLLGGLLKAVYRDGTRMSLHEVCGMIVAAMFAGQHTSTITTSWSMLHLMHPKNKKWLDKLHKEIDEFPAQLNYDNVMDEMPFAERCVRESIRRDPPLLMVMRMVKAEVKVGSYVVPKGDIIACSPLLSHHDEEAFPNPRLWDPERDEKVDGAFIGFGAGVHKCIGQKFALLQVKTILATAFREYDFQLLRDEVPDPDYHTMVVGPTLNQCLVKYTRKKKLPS

Structure (SMILES)	IC50 (Trypanosoma cruzi [1])	IC50 (Trypanosoma cruzi [2])	IC50 (Leishmania donovani [3])	IC50 [4]	IC50 (Trypanosoma cruzi [5])	IC50 (Leishmania donovani [6])	IC50 [7]	IC50 (Leishmania donovani [8])	IC50 [9]	IC50 at 48 h [10]	IC50 (Leishmania donovani [11])	IC50 (Trypanosoma cruzi [12])
Nc1nc(-c2ccccn2)nc(N)c1Cc1c(F)cccc1Cl	1260 nM	1580 nM	1000 nM	> 100000 nM	2000 nM	1260 nM	2000 nM	2510 nM	2510 nM	20000 nM	31600 nM	1580 nM
COc1ccc(Nc2nccc(N(C)c3n[nH]c4c(F)cccc34)n2)cc1S(C)(=O)=O	7940 nM	2000 nM	1000 nM	31600 nM	3980 nM	2510 nM	10000 nM	25100 nM	6310 nM	20000 nM	10000 nM	2000 nM
COc1ccccc1CNc1cc(C2CC2)nc(-c2nccn2C)n1	631 nM	1000 nM	398 nM	20000 nM	794 nM	501 nM	2000 nM	1000 nM	2510 nM	20000 nM	15800 nM	891 nM
COc1ccc(CNc2cc(C3CC3)nc(-c3nccn3C)n2)cc1	1000 nM	631 nM	794 nM	5010 nM	794 nM	794 nM	2510 nM	2000 nM	1260 nM	25100 nM	12600 nM	1000 nM
Cc1ccccc1CNc1cc(C2CC2)nc(-c2nccn2C)n1	794 nM	794 nM	631 nM	15800 nM	794 nM	631 nM	1580 nM	1580 nM	2510 nM	15800 nM	10000 nM	794 nM
Cn1ccnc1-c1nc(NCc2ccccc2Cl)cc(C2CC2)n1	631 nM	794 nM	200 nM	39800 nM	794 nM	631 nM	1580 nM	1580 nM	2000 nM	20000 nM	7940 nM	631 nM
Oc1cccnc1-c1nc(Cc2ccccc2)n[nH]1	15800 nM	6310 nM	2000 nM	> 100000 nM	7940 nM	3160 nM	10000 nM	2000 nM	5010 nM	79400 nM	15800 nM	6310 nM
O=C(Nc1nnc(-c2ccccn2)[nH]1)C1CC1c1ccccc1 (centres undefined)	> 50100 nM	15800 nM	7940 nM	> 100000 nM	20000 nM	7940 nM	20000 nM	12600 nM	> 12600 nM	> 100000 nM	20000 nM	15800 nM
CCOc1ccc(NC(=O)c2ccc(NC(=O)NC3CCCCC3)cc2)cc1	> 50100 nM	> 50100 nM	6310 nM	> 100000 nM	> 50100 nM	7940 nM	501 nM	> 50100 nM	200 nM	> 100000 nM	3980 nM	31600 nM
COc1ccc(S(=O)(=O)Nc2ccc(CN3CCN(C(=O)c4cccc(C#N)c4)CC3)cc2)cc1	> 50100 nM	794 nM	> 50100 nM	> 100000 nM	1000 nM	> 50100 nM	631 nM	31600 nM	398 nM	> 100000 nM	> 50100 nM	1000 nM
Cc1ccc(S(=O)(=O)Nc2ccc(CN3CCN(C(=O)c4cccc(C)c4)CC3)cc2)cc1	> 50100 nM	316 nM	31600 nM	79400 nM	316 nM	39800 nM	501 nM	25100 nM	251 nM	> 100000 nM	39800 nM	501 nM
Cc1ccc(Nc2nc(C3CCCN3Cc3cc[nH]n3)cs2)nc1 (centres undefined)	10000 nM	2000 nM	1260 nM	6310 nM	2000 nM	1580 nM	3980 nM	12600 nM	794 nM	31600 nM	25100 nM	794 nM
CC(c1ccccn1)N(C)Cc1nc2ccccc2n1C(C)C (centres undefined)	> 50100 nM	2000 nM	2000 nM	31600 nM	6310 nM	3160 nM	10000 nM	10000 nM	12600 nM	25100 nM	15800 nM	1580 nM
CC1CCCCN1C(=O)NCCc1coc(-c2ccc(F)cc2)n1 (centres undefined)	> 50100 nM	316 nM	> 50100 nM	> 100000 nM	316 nM	> 50100 nM	158 nM	> 50100 nM	126 nM	> 100000 nM	> 50100 nM	398 nM
c1ccc(-c2nc(NC3CCCC3)c3ccccc3n2)nc1	501 nM	2000 nM	1260 nM	> 100000 nM	794 nM	2000 nM	6310 nM	3980 nM	6310 nM	15800 nM	20000 nM	2000 nM
COc1cc(F)c2ncc(F)c(CCN3CC[C@H](NCc4cc5c(cn4)OCS5)[C@@H](O)C3)c2c1	> 50100 nM	200 nM	12600 nM	31600 nM	251 nM	15800 nM	501 nM	25100 nM	251 nM	50100 nM	15800 nM	398 nM
CN(Cc1nc2ccc(C(=O)NCC3CCCCC3)cc2[nH]1)C1CCCc2cccnc21 (centres undefined)	5010 nM	316 nM	398 nM	39800 nM	631 nM	501 nM	316 nM	3160 nM	794 nM	15800 nM	6310 nM	501 nM
